Measurements published in EPA's ToxRefDB 2.

Tests used:
dog [1] = settings: Chronic toxicity; beagle; Oral; Feed; dose end: 52 week; group: systemic; systemic / clinical chemistry / albumin / albumin + systemic / clinical chemistry / cholesterol / cholesterol + systemic / clinical …
rat [2] = settings: Multigenerational reproductive toxicity study, sprague dawley, Oral, Feed, dose end: 2 generation
mouse [3] = settings: Carcinogenicity; cd1; Oral; Feed; dose end: 97 week; group: systemic; systemic / in life observation / body weight / body weight + systemic / in life observation / body weight / body weight gain + systemic / …
rat [4] = settings: Combined chronic toxicity/carcinogenicity, sprague dawley, Oral, Feed, dose end: 104 week, group: systemic
rat [5] = settings: Prenatal developmental toxicity study, sprague dawley, Oral, Gavage/Intubation, dose end: 15 GD
dog [6] = settings: Subchronic oral toxicity in nonrodent, beagle, Feed, dose end: 90 day, group: systemic, systemic / clinical chemistry / albumin / albumin + systemic / clinical chemistry / calcium / calcium + systemic / clinical chemistry / …
rat [7] = settings: Subchronic oral toxicity in rodents, fischer, Feed, dose end: 14 week, group: systemic
mouse [8] = settings: Prenatal developmental toxicity study, cd1, Oral, Water, dose end: 15 GD
mouse [9] = settings: Carcinogenicity, b6c3f1, Oral, Gavage/Intubation, dose end: 2 year, group: systemic
rat [10] = settings: Prenatal developmental toxicity study, sprague dawley, Oral, Feed, dose end: 15 GD
rabbit = settings: Prenatal developmental toxicity study, other, Injection, Intravenous, dose end: 18 GD
mouse [11] = settings: Subchronic oral toxicity in rodents, b6c3f1, Feed, dose end: 14 week, group: systemic
rat [12] = settings: Combined chronic toxicity/carcinogenicity; fischer; Oral; Gavage/Intubation; dose end: 2 year; group: systemic; systemic / in life observation / body weight / body weight gain
mouse [13] = settings: Subchronic oral toxicity in rodents, b6c3f1, Gavage/Intubation, dose end: 14 week, group: systemic
rat [14] = settings: Subchronic oral toxicity in rodents, fischer, Gavage/Intubation, dose end: 14 week, group: systemic
mouse [15] = settings: Prenatal developmental toxicity study, other, Injection, Intraperitoneal, dose end: 13 GD
dog [16] = settings: Sub-acute repeat dose toxicity; beagle; Injection; Intravenous; dose end: 4 week; group: systemic; systemic / clinical chemistry / alanine aminotransferase (alt/sgpt) / alanine aminotransferase (alt/sgpt) + systemic / clinical chemistry / …
[17] = group: offspring, systemic / in life observation / body weight / offspring (pup) weight + systemic / in life observation / body weight / offspring (pup) …
[18] = group: parental, systemic / in life observation / body weight / body weight gain
[19] = group: parental, systemic / in life observation / body weight / body weight gain + systemic / in life observation / body weight / body weight + systemic / in…
[20] = systemic / hematology / erythrocyte (rbc) count differential / erythrocyte (rbc) + systemic / hematology / hematocrit (hct) / hematocrit (…
[21] = group: developmental, developmental / developmental malformation / bone / incomplete ossification
[22] = group: developmental, developmental / developmental malformation / bone / incomplete ossification + developmental / developmental malformation / bone / short …
[23] = group: maternal, systemic / in life observation / body weight / body weight gain + systemic / in life observation / clinical signs / [other] + systemic / in …
[24] = systemic / hematology / mean corpuscular (cell) volume (mcv) / mean corpuscular (cell) volume (mcv) + systemic / hematology / mean …
[25] = systemic / hematology / neutrophils / neutrophils
[26] = group: developmental, systemic / in life observation / body weight / fetal weight
[27] = group: maternal, reproductive / reproductive performance / resorptions / resorptions + systemic / in life observation / body weight / body weight gain + …
[28] = systemic / in life observation / body weight / body weight
[29] = systemic / in life observation / body weight / body weight + systemic / in life observation / clinical signs / hyperactivity
[30] = group: maternal, reproductive / offspring survival early / litter size / litter size + systemic / in life observation / body weight / body weight gain + …
[31] = group: maternal, systemic / in life observation / water consumption / water consumption
[32] = group: developmental, developmental / developmental malformation / bone / [other] + developmental / developmental malformation / bone / supernumerary + …
[33] = group: maternal, reproductive / reproductive performance / aborted / aborted + systemic / in life observation / body weight / body weight + systemic / in …
[34] = systemic / in life observation / body weight / body weight + systemic / in life observation / body weight / body weight gain
[35] = systemic / in life observation / body weight / body weight + systemic / in life observation / body weight / body weight gain + systemic / …
[36] = systemic / in life observation / mortality / mortality + systemic / pathology microscopic / liver / glycogen deposition + systemic / …
[37] = systemic / pathology microscopic / liver / glycogen deposition
[38] = systemic / hematology / mean corpuscular hemoglobin (mch) / mean corpuscular hemoglobin (mch)
[39] = group: developmental, developmental / developmental malformation / general / [other] + developmental / developmental malformation / limb / micromelia + …
[40] = group: developmental, developmental / developmental malformation / paw / digit / ectrodactyly
[41] = group: maternal, reproductive / reproductive performance / resorptions / resorptions + reproductive / offspring survival early / dead fetuses / dead fetuses

## CN(C)C(=S)SSC(=S)N(C)C [Thiram]
Dog [1]
  LEL: 0.84 mg/kg/day
  LOAEL: 0.84 mg/kg/day
  NEL: < 0.84 mg/kg/day
  NOAEL: < 0.84 mg/kg/day
Rat [2]; [17]
  LEL: 4.9 mg/kg/day
  LOAEL: 4.9 mg/kg/day
  NEL: 1.7 mg/kg/day
  NOAEL: 1.7 mg/kg/day
Rat [2]; [18]
  LEL: 4.7 mg/kg/day
  LOAEL: 4.7 mg/kg/day
Rat [2]; [19]
  NEL: 1.6 mg/kg/day
  NOAEL: 1.6 mg/kg/day
Mouse [3]
  LEL: 24 mg/kg/day
  LOAEL: 24 mg/kg/day
  NEL: 2.5 mg/kg/day
  NOAEL: 2.5 mg/kg/day
Rat [4]; [20]
  LEL: 1.8 mg/kg/day
  NEL: < 1.8 mg/kg/day
Rat [4]; systemic / in life observation / body weight / body weight gain
  LOAEL: 7.3 mg/kg/day
Rat [4]; systemic / in life observation / body weight / body weight gain + systemic / clinical chemistry / glucose / glucose + systemic / hematology…
  NOAEL: 1.5 mg/kg/day
Rat [5]; [21]
  LEL: 7.5 mg/kg/day
  NEL: < 7.5 mg/kg/day
Rat [5]; [22]
  LOAEL: 15 mg/kg/day
  NOAEL: 7.5 mg/kg/day
Rat [5]; [23]
  LEL: 7.5 mg/kg/day
  LOAEL: 7.5 mg/kg/day
  NEL: < 7.5 mg/kg/day
  NOAEL: < 7.5 mg/kg/day
Dog [6]
  LEL: 2.26 mg/kg/day
  LOAEL: 7.01 mg/kg/day
  NEL: < 2.26 mg/kg/day
  NOAEL: 2.26 mg/kg/day

## Cn1c(=O)c2[nH]cnc2n(C)c1=O [Theophylline]
Rat [7]; [24]
  LOAEL: 125 mg/kg/day
  NOAEL: 75 mg/kg/day
Rat [7]; [25]
  LEL: 75 mg/kg/day
  NEL: < 75 mg/kg/day
Mouse [8]; [26]
  LEL: 372 mg/kg/day
  LOAEL: > 396 mg/kg/day
  NEL: 282 mg/kg/day
  NOAEL: ≥ 396 mg/kg/day
Mouse [8]; [27]
  LEL: 372 mg/kg/day
  LOAEL: > 396 mg/kg/day
  NEL: 282 mg/kg/day
  NOAEL: ≥ 396 mg/kg/day
Mouse [9]; [28]
  LEL: 25 mg/kg/day
  LOAEL: 25 mg/kg/day
Mouse [9]; [29]
  NEL: 7.5 mg/kg/day
  NOAEL: 7.5 mg/kg/day
Rat [10]; [26]
  LEL: 218 mg/kg/day
  LOAEL: > 259 mg/kg/day
  NEL: 124 mg/kg/day
  NOAEL: ≥ 259 mg/kg/day
Rat [10]; [30]
  LOAEL: > 259 mg/kg/day
  NOAEL: ≥ 259 mg/kg/day
Rat [10]; [31]
  LEL: 124 mg/kg/day
  NEL: < 124 mg/kg/day
rabbit; group: developmental, developmental / developmental malformation / bone / [other]
  LEL: 30 mg/kg/day
rabbit; [32]
  LOAEL: > 60 mg/kg/day
  NEL: 15 mg/kg/day
  NOAEL: ≥ 60 mg/kg/day
rabbit; [33]
  LOAEL: > 60 mg/kg/day
  NEL: 15 mg/kg/day
  NOAEL: ≥ 60 mg/kg/day
rabbit; group: maternal, systemic / urinalysis / volume / volume
  LEL: 30 mg/kg/day
Mouse [11]; [34]
  LOAEL: 175 mg/kg/day
  NOAEL: < 175 mg/kg/day
Mouse [11]; [35]
  LEL: 175 mg/kg/day
  NEL: < 175 mg/kg/day
Rat [12]
  LEL: 7.5 mg/kg/day
  LOAEL: 7.5 mg/kg/day
  NEL: < 7.5 mg/kg/day
  NOAEL: < 7.5 mg/kg/day
Mouse [13]; [36]
  LOAEL: > 300 mg/kg/day
  NOAEL: ≥ 300 mg/kg/day
Mouse [13]; [37]
  LEL: 75 mg/kg/day
  NEL: < 75 mg/kg/day
Rat [14]; [38]
  LEL: 37.5 mg/kg/day
  NEL: < 37.5 mg/kg/day
Rat [14]; systemic / pathology microscopic / artery (general) / polyarteritis + systemic / hematology / mean corpuscular (cell) volume (mcv) / mean …
  LOAEL: 150 mg/kg/day
Rat [14]; systemic / pathology microscopic / artery (general) / polyarteritis + systemic / in life observation / body weight / body weight gain + …
  NOAEL: 75 mg/kg/day
Mouse [15]; [39]
  LOAEL: > 200 mg/kg/day
  NOAEL: ≥ 200 mg/kg/day
Mouse [15]; [40]
  LEL: 100 mg/kg/day
  NEL: < 100 mg/kg/day
Mouse [15]; group: maternal, reproductive / reproductive performance / resorptions / resorptions
  NEL: 150 mg/kg/day
Mouse [15]; [41]
  LEL: 200 mg/kg/day
  LOAEL: > 200 mg/kg/day
  NOAEL: ≥ 200 mg/kg/day
Dog [16]
  LEL: 35 mg/kg/day
  LOAEL: > 70 mg/kg/day
  NEL: 20 mg/kg/day
  NOAEL: ≥ 70 mg/kg/day
